From patent publication US20230313181A1, “HISTIDINE-LYSINE POLYMERS AND METHODS FOR DELIVERING MRNA USING THE SAME” (UNIVERSITY OF MARYLAND, BALTIMORE, priority 2019, published 2023)
Bridges are numbered along the chain shown (N, C = ends). Roman numbers before positions name the chains, in order. Where no end group is shown, it is not given here.

Assays:
cytokines = conditions: in vitro and in vivo; prior study [45]; cited from earlier work
mRNA = assay: Heparin displacement assays (gel electrophoresis and Sybr Gold dye intercalation); format: physicochemical; conditions: HK:mRNA 4:1 wt/wt
Protocol: FIG. 4. Heparin Displacement Assays. After HK polyplexes were formed (wt:wt; HK:mRNA; 4 μg:1 μg), different concentrations of heparin […] were incubated with these for 30 min. A. Gel Retardation. The HK polyplexes were loaded on the agarose gel (1%), and electrophoresis was carried out and stained with Sybr Gold. B. Fluorescent dye intercalation. After the HK polyplexes were formed and incubated with several concentrations of heparin, the Sybr Gold nucleic acid dye was incubated with the HK polyplexes for 5 mins. Fluorescence was then measured by a microplate fluorimeter (λex=497 nm, λem=520 nm) (SynergyMx, BioTek). *, P<0.05; ***, P<0.001; H3K4b or H2K vs. H3K(+H)4b.
Heparin Displacement Assays. Heparin displacement assays of HK polyplexes were done with the dye intercalation assay and with gel electrophoresis. A fluorescent assay assessed polyplexes of HK polymer and mRNA (4:1 wt/wt ratio; polymer:mRNA) formed in RNAse/DNAase free water (Corning, Manassas, VA). HK polyplexes were prepared as described previously, followed by the addition of diluted Syber Gold. For detection, working dilutions of the polyplexes (1/5 of volume), water (3/5) and Sybr Gold dye (1/5, 0.2×) were incubated for 5 minutes, and fluorescence was measured by a fluorimeter (Ex=497 nm, Em=520 nm) (SynergyMx, BioTek, Winooski, VT). The control sample was prepared with the same amount of mRNA, water, and Sybr Gold dye. For the heparin displacement, instead of water, heparin salt (Sigma-Aldrich, St. Louis, MO) solutions at different concentrations (0.5, 1, 1.5, 2, 3 μg/μl) were used, and the HK polyplexes were incubated at 37° C. for 30 min before addition of Sybr Gold.
Displacement of mRNA from HK polyplexes with heparin was also done with gel electrophoresis. After HK polyplexes were formed, different concentrations of heparin (0.5, 1.0, 1.5, 2.0, 3.0 μg/μl; volume 20 μl) were incubated with these at 37° C. for 30 min. The polyplexes were then loaded on the agarose gel (1%; 10× BlueJuice Gel loading buffer), and electrophoresis was carried out and stained with SG as described above. […]

[1] = Acid-base titration of HK polymer solutions; format: physicochemical; conditions: pH titration curves, 5 mg/ml
Protocol: FIG. 2. Titration of different HK peptide solutions. Solutions of polymers (5 mg/ml) (H2K4b, H3K4b, H3K(+H)4b, and H4K4b) were adjusted to pH 3 (initial volume—1 ml) and then […] aliquots of 0.05 N NaOH were stepwise added and the pH measured.
Acid-Base Titration. After polymer solutions (e.g. containing one or more of H2K4b, H3K4b, H3K(+H)4b, and H4K4b) were adjusted to pH 3.0 (5 mg/mil; initial volume—1 mil), aliquots (5 μl) of NaOH (0.05 N) were stepwise added with the pH measured (FiveEasy™ meter; InLab Solids Pro-ISM pH electrode, Mettler Toledo, Columbus, OH). Titration was stopped at about pH 9.0.

[2] = prior studies [34, 35, 45]; cited from earlier work
[3] = Cell viability assay (trypan blue exclusion); format: cell-based; conditions: human, MDA-MB-231 cells, HK polymer 4 μg or polyplex (4 μg HK; 1 μg mRNA), then 19 h DMEM/10% FBS
Protocol: Cell Viability Assay. MDA-MB-231 cells were seeded at 5.0×10^4/well in a 24-tissue culture plate and incubated overnight in DMEM supplemented with 10% FBS serum. The media was then changed to Opti-MEM and the cells were treated with either the HK polymer (4 μg) or the HK polyplex (4 μg HK; 1 μg mRNA) for 5 h. After the media was changed to DMEM/10% FBS for 19 h, the cell viability was measured using the trypan blue cell exclusion assay (Trypan Blue solution, 0.4%, Sigma-Aldrich, St. Louis, MO).
After the medium was changed to Opti-MEM in cell cultures of the MDA-MB-231 cells used in the experiment described above, either the HK polymer (4 μg) or the HK polyplex (4 μg HK; 1 μg mRNA) was added dropwise to the cells and incubated for 5 h. The media was then changed to DMEM/10% FBS for 19 h and cell viability was determined using the trypan cell exclusion assay.

[4] = Particle size, polydispersity index (PDI) and zeta potential of polyplexes (Zetasizer); format: physicochemical
Protocol: Particle size, polydispersity index (PDI), and zeta potential. The size, PDI, and zeta potential were determined with the Zetasizer (Malvern, Westborough, Mass.) and analyzed with software provided by the instrument manufacturer (Zetasizer software, version 6.2). Using dynamic light scattering at a 90° angle, the size of the particles were reported as the Z-average diameter from the intensity-weighted size distribution. Prior to the measurements, the samples were equilibrated to 25° C. for 2 min. Each measurement had at least ten sub-runs under the automatic mode of the software. The particle size, PDI, and zeta potential data point represent the mean±SD of three measurements. After mixing HK peptides (4 μg) and mRNA (1 μg) in 100 μl of defined media (Opti-MEM, water, or DMEM/8% FBS) for 30 min, 100 μl of additional defined media was added to the polyplex solution (total volume 200 μl) to measure the size and PDI. To determine the zeta potential, 800 μl more of the media was added (total volume 1000 μl), mixed gently, and then added to the disposable zeta cell.
Because different stabilities were observed between the H3K4b and H3K(+H)4b polyplexes, whether the sizes of these polyplexes varied based on the media in which they were prepared was investigated. […] H3K(+H)4b and H3K4b peptides (4 μg) in complex with mRNA (1 μg) were mixed with either Opti-MEM, water, or DMEM/8% FBS […]. After 1 h, the size, PDI, and zeta potential were measured.

MDA-MB-231 cells = assay: In vitro mRNA transfection with HK polyplexes (luciferase mRNA, luciferase activity); format: cell-based; conditions: mRNA 1 μg, 24 h
Protocol: FIG. 1. Comparison of H3K(+H)4b and H3K4b peptides as carriers of mRNA. To form the HK polyplexes, the mRNA (1 μg) was mixed with 3 different ratios of the HK ([…]) polymer for 30 minutes. The HK polyplexes were then added to the cells for 24 h before the luciferase activity was measured. ****, H3K(+H)4b vs H3K4b, P<0.0001.
In vitro mRNA Transfection. Several HK polymers were examined for their ability to carry a luciferase-expressing mRNA (CleanCap Firefly Luciferase mRNA, Trilink Biotechnologies, Inc, San Diego, CA) into MDA-MB-231 cells (America Type Tissue Culture, Manassas, VA). In brief, 3×10^4 cells were plated into a 24-well plate containing 500 μl of DMEM and 10% fetal bovine serum (ThermoFisher Scientific, Waltham, MA). After 24 h, when the cells were 60 to 80% confluent, the media in each well was changed to Opti-MEM (ThermoFisher Scientific). To prepare HK polyplexes, mRNA (1 μg) in 50 μl of Opti-MEM was briefly mixed well with one of the HK polymers (4 to 12 μg) and maintained at room temperature for 30 min. This polyplex was then added dropwise to the cells. After four h, the Opti-MEM media was removed and replaced with 0.5 ml of DMEM/10% serum (0.5 ml). Twenty-four hours later, the cells were lysed, and the luciferase activity (Promega Corporation, Madison, WI) was measured.
To obtain the data in Table 4, luciferase-expressing mRNA (1 μg) in 50 μl of Opti-MEM was briefly mixed with one of the HK polymers (4, 8, or 12 μg) and maintained at room temperature for 30 min. The resulting polyplexes were added dropwise to the MDA-NM-231 cells and after four h, the Opti-MEM media was removed and replaced with DMEM/10% serum. Twenty-four hours later, the cells were lysed, and the luciferase activity was measured

[5] = polyplex HK 4 μg:mRNA 1 μg in DMEM/8% FBS
[6] = polyplex HK 4 μg:mRNA 1 μg in Opti-MEM
[7] = polyplex HK 4 μg:mRNA 1 μg in Water

## I: KHHHKHHHKHHHKHHHKKKK-NH2 / II: KHHHKHHHKHHHKHHHK / III: KHHHKHHHKHHHKHHHK / IV: KHHHKHHHKHHHKHHHK (amide I:18-IV:C, I:19-III:C, I:20-II:C) [H3K4b]
cytokines
  cytokine induction by siRNA polyplex (in words): induced cytokines to a significantly greater degree
mRNA
  binding/release of mRNA and polyplex stability on exposure to heparin (in words): released by the H3K4b polymer more readily than the H3K(+H)4b polymer
[1]
  buffering profile / buffering capacity (in words): minimal differences in their buffering profile
[2]
  carrier of siRNA (in words): effective carriers of siRNA
[3]
  viability at 5 h: 95.6%
[4]; [5]
  PDI: 0.421
  Size: 578 ± 80.5 nm
  Zeta Potential: −12.1 ± 2.22 mV
[4]; [6]
  PDI: 0.466
  Size: 2030.7 ± 117.3 nm
  Zeta Potential: −4.20 ± 2.78 mV
[4]; [7]
  PDI: 0.171
  Size: 199.9 ± 0.8 nm
  Zeta Potential: 16.47 ± 0.74 mV
MDA-MB-231 cells; ratio mRNA:polymer 1:4 (wt:wt)
  RLU/μg-Protein (luciferase activity): 156.8 ± 41.8 RLU/μg-Protein
MDA-MB-231 cells; ratio mRNA:polymer 1:8 (wt:wt)
  RLU/μg-Protein (luciferase activity): 62.1 ± 13.2 RLU/μg-Protein
MDA-MB-231 cells; ratio mRNA:polymer 1:12 (wt:wt)
  RLU/μg-Protein (luciferase activity): 18.1 ± 4.0 RLU/μg-Protein
